The text below walks through data of patent US20250163104A1, “MACROCYCLIC IMMUNOMODULATORS” (priority 2021, published 2025).

The target in the experiment is T1, human PD-1 / PD-L1-Ig binding on Jurkat cell line over-expressing human PD-1 (Jurkat-PD-1) (Homo sapiens, UniProt Q15116).
T1 construct: expressed in transfected cells; host or cells: Jurkat
Kind of experiment: Jurkat-PD-1 Cell Binding High-Content Screening Assay (CBA). Particulars: Jurkat-PD-1 cells, PE-labeled PD-L1-Ig 20 nM final; read-out: Jurkat HPD1_PDL1 IC50. It is filed as cell-based. The essentials:
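Jurkat cells over-expressing human PD-1, in DMEM/10% FCS, pre-incubated with compound 2 h at 37° C. PE-labeled human PD-L1-Ig (20 nM final) added for 1 h; cells fixed in paraformaldehyde with Hoechst 33342 nuclear stain, washed, and bound fluorescence quantified by high-content imaging.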

In general, IC50 refers to the point on the concentration scale where inhibition reaches its midpoint.

Where a SMILES comes first, the peptide text is derived from it. Bridges are numbered along the chain shown (N, C = ends). [ ]: non-standard residue; d: D form. The star is where a group is joined. ξ: configuration not given here. Phe(3-CF3) = N[C@@H](Cc1cccc(C(F)(F)F)c1)C(=O)O; Bip = N[C@@H](Cc1ccc(-c2ccccc2)cc1)C(=O)O; Phe(3-Me) = Cc1cccc(C[C@H](N)C(=O)O)c1; ξW = NC(Cc1c[nH]c2ccccc12)C(=O)O; Cha = N[C@@H](CC1CCCCC1)C(=O)O; Cit = NC(=O)NCCC[C@H](N)C(=O)O; Thr(3ξ) = CC(O)[C@H](N)C(=O)O; ξCit = NC(=O)NCCCC(N)C(=O)O; Carboxymethyl = O=C(O)C*; Orn = NCCC[C@H](N)C(=O)O; Pra = C#CC[C@H](N)C(=O)O; Dab = NCC[C@H](N)C(=O)O; Dap = NC[C@H](N)C(=O)O; Propargyl = C#CC*

T1 sequence (Q15116 25-288): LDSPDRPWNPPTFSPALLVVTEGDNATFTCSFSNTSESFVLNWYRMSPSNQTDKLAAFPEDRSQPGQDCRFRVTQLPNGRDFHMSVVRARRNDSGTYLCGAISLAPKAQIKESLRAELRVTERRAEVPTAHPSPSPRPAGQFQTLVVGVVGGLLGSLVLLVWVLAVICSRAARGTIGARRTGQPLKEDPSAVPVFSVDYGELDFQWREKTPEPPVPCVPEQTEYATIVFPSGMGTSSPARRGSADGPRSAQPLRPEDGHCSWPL

Consider `CC(C)C[C@H]1NC(=O)[C@H](CCCN)NC(=O)[C@H](CCCNC(N)=O)NC(=O)[C@H](Cc2ccc(-c3ccccc3)cc2)NC(=O)[C@H](C(C)C)NC(=O)[C@H](Cc2c[nH]c3ccccc23)NC(=O)[C@H](CC(=O)O)NC(=O)[C@H](Cc2cccc(C(F)(F)F)c2)NC(=O)[C@H](CN)NC(=O)CSC[C@@H](C(=O)N[C@@H](C)C(N)=O)NC(=O)[C@H]([C@@H](C)O)NC(=O)[C@H](C(C)C)NC(=O)[C@H](CC2CCCCC2)NC(=O)[C@H](CCN)NC1=O` [Compound 2092] ({CH2CO}-[Dap][Phe(3-CF3)]DWV[Bip][Cit][Orn][dL][Dab][Cha]VTCA-NH2; thioether N-14), for which the IC50 was found to be 43.1 nM.

As to `C#CC[C@H](NC(=O)[C@H](CCN)NC(=O)[C@@H]1CSCC(=O)N[C@@H](CN)C(=O)N[C@@H](Cc2ccc(OCC(=O)O)cc2)C(=O)N[C@@H](CC(=O)O)C(=O)N[C@@H](Cc2cccc(C)c2)C(=O)N[C@@H](C(C)C)C(=O)N[C@@H](Cc2ccc(-c3ccccc3)cc2)C(=O)NC(CCCNC(N)=O)C(=O)N[C@@H](CCCN)C(=O)N[C@H](CC(C)C)C(=O)N[C@@H](CCN)C(=O)N[C@@H](CC2CCCCC2)C(=O)N[C@@H](C(C)C)C(=O)N[C@@H]([C@@H](C)O)C(=O)N1)C(=O)O` (stereo partly drawn) [Compound 2258] ({CH2CO}-[Dap]Y(Carboxymethyl)D[Phe(3-Me)]V[Bip][ξCit][Orn][dL][Dab][Cha]VTC[Dab][Pra]-OH; thioether N-14), the half-maximal inhibitory concentration (IC50) is 14.9 nM.

Consider `C#CCOc1ccc(C[C@@H]2NC(=O)[C@H](Cc3cccc(C)c3)NC(=O)[C@H](CC(=O)O)NC(=O)[C@H](Cc3ccc(OCC(=O)O)cc3)NC(=O)[C@H]([C@@H](C)O)NC(=O)CSC[C@@H](C(=O)N[C@@H](CCN)C(N)=O)NC(=O)[C@H](CCC(=O)O)NC(=O)[C@H](C(C)C)NC(=O)[C@H](CC3CCCCC3)NC(=O)[C@H](CCN)NC(=O)[C@@H](CC(C)C)NC(=O)[C@H](CCCN)NC(=O)[C@H](Cc3ccc(OCC(=O)O)cc3)NC(=O)[C@H](Cc3ccc(-c4ccccc4)cc3)NC2=O)cc1` [Compound 1829] ({CH2CO}-TY(Carboxymethyl)D[Phe(3-Me)]Y(Propargyl)[Bip]Y(Carboxymethyl)[Orn][dL][Dab][Cha]VEC[Dab]-NH2; thioether N-14), for which the half-maximal inhibitory concentration (IC50) amounted to 2.4 nM. Then `CC[C@H](C)[C@@H]1NC(=O)[C@H](Cc2ccc(-c3ccccc3)cc2)NC(=O)[C@H](CC(C)C)NC(=O)C(Cc2c[nH]c3ccccc23)NC(=O)[C@H](CC(=O)O)NC(=O)[C@H](Cc2ccc(O)cc2)NC(=O)[C@H](Cc2ccccc2)NC(=O)CSC[C@@H](C(=O)N[C@@H](C)C(N)=O)NC(=O)[C@H](CO)NC(=O)[C@H](C(C)C)NC(=O)[C@H](CC(C)C)NC(=O)[C@H](CC(N)=O)NC(=O)[C@@H](CC(C)C)NC(=O)[C@H](CN)NC1=O` (stereo partly drawn) [Compound 1216] ({CH2CO}-FYD[ξW]L[Bip]I[Dap][dL]NLVSCA-NH2; thioether N-14), with 22.2 nM; and `CC(C)C[C@@H]1NC(=O)[C@H](CCCCN)NC(=O)[C@@H](CC(C)C)NC(=O)[C@H](CCCN)NC(=O)[C@H](Cc2cnc[nH]2)NC(=O)[C@H](Cc2ccc(-c3ccccc3)cc2)NC(=O)[C@H](C(C)C)NC(=O)[C@H](Cc2c[nH]c3ccccc23)NC(=O)[C@H](CC(=O)O)NC(=O)[C@H](Cc2ccc(O)cc2)NC(=O)[C@H](CC(N)=O)NC(=O)CSC[C@@H](C(=O)NCC(N)=O)NC(=O)[C@H]([C@@H](C)O)NC(=O)[C@H](C(C)C)NC1=O` [Compound 1136] ({CH2CO}-NYDWV[Bip]H[Orn][dL]KLVTCG-NH2; thioether N-14), with 50.8 nM; and `CC(C)C[C@@H]1NC(=O)[C@H](Cc2c[nH]c3ccccc23)NC(=O)[C@H](CC(=O)O)NC(=O)[C@H](Cc2ccc(OCC(=O)O)cc2)NC(=O)[C@H](C(C)O)NC(=O)CSC[C@@H](C(N)=O)NC(=O)[C@H](CO)NC(=O)[C@H](C(C)C)NC(=O)[C@H](CC2CCCCC2)NC(=O)[C@H](CCC(=O)O)NC(=O)[C@@H](CC(C)C)NC(=O)[C@H](Cc2cnc[nH]2)NC(=O)[C@H](C(C)C)NC(=O)[C@H](Cc2ccc(-c3ccccc3)cc2)NC1=O` (stereo partly drawn) [Compound 2608] ({CH2CO}-[Thr(3ξ)]Y(Carboxymethyl)DWL[Bip]VH[dL]E[Cha]VSC-NH2; thioether N-14), with 118 nM.
